The results in this text go back to PubChem BioAssay (NCI).

Some test systems named below: SF-539 CNS; MALME-3M melanoma; A498 renal; M14 melanoma; SNB-75 CNS; MDA-MB-435; HOP-62 NSCLC; UACC-62 melanoma; MOLT-4 leukemia; SNB-19 CNS.
Common to all, as to assay: DTP human tumour cell line panel, 48 h

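Tested at 5 concentrations; 48 h exposure; 96-well plates; endpoints linearly interpolated, else capped at highest concentration. GI50 = concentration required for 50% inhibition of growth. TGI marks complete inhibition of growth.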

One may read the GI50 as the concentration at which growth is held to half of that of the control. As a reminder, the TGI is the concentration at which net growth stops. High values mean less potent growth arrest, low ones more potent growth arrest. For `C/C(CC(C)(C)N1CC1)=N\NC(=O)Nc1cccc2ccccc12`, the GI50 in the assay with SF-539 CNS is 3.35 µM; in the assay on MALME-3M melanoma, 4.08 µM; in the assay with A498 renal, 2.55 µM; in the assay on M14 melanoma it was 4.25 µM; in the assay with SNB-75 CNS it was 2.62 µM; in the assay with MDA-MB-435, 6.19 µM. Besides, the GI50 with HOP-62 NSCLC is 4.12 µM; in the assay on UACC-62 melanoma, 4.06 µM; in the assay with MOLT-4 leukemia, 2.59 µM; in the assay on SNB-19 CNS it was 5.14 µM. In addition, the TGI with SF-539 CNS is 15.7 µM; in the assay with MALME-3M melanoma it was 18.8 µM; with A498 renal it was 9.5 µM; in the assay on M14 melanoma, 15.2 µM; with SNB-75 CNS it was 13.8 µM; in the assay with MDA-MB-435, 19.9 µM. Also, the total growth inhibition concentration (TGI) with HOP-62 NSCLC was 15.8 µM; in the assay with UACC-62 melanoma it was 15.8 µM; with MOLT-4 leukemia it was 6.29 µM; with SNB-19 CNS, 18.1 µM.

Consider `Cc1ccc2[nH]c(C(=O)NN3C(=O)C(C)SC34CCC(C)CC4)c(-c3ccccc3)c2c1` (stereo not given), for which the GI50 is 20.8 µM in the assay with SF-539 CNS; 17 µM in the assay on MALME-3M melanoma; 17.2 µM in the assay with A498 renal; 18.2 µM in the assay with M14 melanoma; 24.4 µM with SNB-75 CNS; 16.5 µM in the assay on MDA-MB-435. For the same compound, the GI50 with HOP-62 NSCLC was 18.1 µM; with UACC-62 melanoma, 11.8 µM; with MOLT-4 leukemia, 7.86 µM; in the assay on SNB-19 CNS, 22.7 µM. In addition, the concentration for total growth inhibition (TGI) worked out at 45.6 µM in the assay on SF-539 CNS; 33.4 µM in the assay with MALME-3M melanoma; 35 µM in the assay on A498 renal; 39 µM in the assay with M14 melanoma; 51.4 µM with SNB-75 CNS; 35.4 µM in the assay with MDA-MB-435. The TGI in the assay with HOP-62 NSCLC came out at 37.7 µM; in the assay with UACC-62 melanoma, 25.6 µM; in the assay with MOLT-4 leukemia it was 32.2 µM; in the assay with SNB-19 CNS, 62.4 µM.

With `O=S(=O)(O)n1ccnc1` (tested in a mixture with another compound), the TGI in the assay with SF-539 CNS, with MALME-3M melanoma, with A498 renal, with M14 melanoma, in the assay with SNB-75 CNS and in the assay with MDA-MB-435 was greater than 100 µM throughout. For the same compound, the TGI in the assay with HOP-62 NSCLC, with UACC-62 melanoma, in the assay with MOLT-4 leukemia and in the assay with SNB-19 CNS was greater than 100 µM in each case.

Consider `COc1ccc(C2CC(c3ccc(OC)cc3O)=NN2c2ccc(S(N)(=O)=O)cc2)cc1` (stereo not given), for which the GI50 was 30.2 µM with SF-539 CNS; 20.2 µM in the assay with MALME-3M melanoma; 13.1 µM in the assay on A498 renal; 4.54 µM with M14 melanoma; 20.8 µM in the assay with SNB-75 CNS; 6.56 µM in the assay with MDA-MB-435. For the same compound, the GI50 in the assay with HOP-62 NSCLC was 33.1 µM; with UACC-62 melanoma it was 8.76 µM; in the assay with MOLT-4 leukemia, 2.88 µM; in the assay on SNB-19 CNS, 27.3 µM. Moreover, the total growth inhibition concentration (TGI) in the assay on SF-539 CNS is greater than 100 µM; with MALME-3M melanoma, greater than 100 µM; with A498 renal, 80.2 µM; with M14 melanoma it was 25.9 µM; in the assay on SNB-75 CNS, greater than 100 µM; in the assay with MDA-MB-435, greater than 100 µM. For the same compound, the TGI in the assay with HOP-62 NSCLC was greater than 100 µM; in the assay on UACC-62 melanoma, greater than 100 µM; in the assay with MOLT-4 leukemia, 36.6 µM; in the assay on SNB-19 CNS, greater than 100 µM.

`O=C(Nc1n[nH]c2nc(-c3ccc(O)cc3)c(Br)cc12)C1CC1`: the GI50 with SF-539 CNS was 1.34 µM; in the assay with MALME-3M melanoma, 4.62 µM; with A498 renal, 4.65 µM; in the assay on M14 melanoma it was 3.97 µM; with SNB-75 CNS, 6.21 µM; in the assay with MDA-MB-435, 2.71 µM. Besides, the GI50 is 5.32 µM in the assay on HOP-62 NSCLC, 4.26 µM in the assay with UACC-62 melanoma, 5.13 µM in the assay on MOLT-4 leukemia and 6.96 µM with SNB-19 CNS. Further, the TGI in the assay with SF-539 CNS is 6.27 µM; with MALME-3M melanoma, 12.5 µM; in the assay with A498 renal, 14.4 µM; in the assay on M14 melanoma, 11.3 µM; in the assay on SNB-75 CNS it was 12.5 µM; with MDA-MB-435, 7.29 µM. In addition, the TGI with HOP-62 NSCLC is 14 µM; in the assay on UACC-62 melanoma, 11.9 µM; with MOLT-4 leukemia, greater than 25 µM; in the assay on SNB-19 CNS it was greater than 24.1 µM.

`CCCCC(OC(=O)c1ccc(N)cc1)C(=O)Nc1nc(CC(=O)OCC)cs1` (stereo not given): the GI50 in the assay on SF-539 CNS was 33.1 µM; in the assay with MALME-3M melanoma, 30.1 µM; with A498 renal, 57.4 µM; with M14 melanoma, 32.8 µM; in the assay on SNB-75 CNS, 35.2 µM; with MDA-MB-435, 35 µM. The GI50 was 56.5 µM in the assay on HOP-62 NSCLC, 51.6 µM with UACC-62 melanoma, 35.8 µM with MOLT-4 leukemia and 49.9 µM in the assay with SNB-19 CNS. The total growth inhibition concentration (TGI) with SF-539 CNS, in the assay with MALME-3M melanoma, with A498 renal, in the assay on M14 melanoma, in the assay on SNB-75 CNS and with MDA-MB-435 was greater than 100 µM in each case. Further, the TGI in the assay on HOP-62 NSCLC, in the assay with UACC-62 melanoma, with MOLT-4 leukemia and with SNB-19 CNS was greater than 100 µM in each case.

As for `CCn1c(SCC(=O)Nc2cc(C(F)(F)F)ccc2Cl)nc2ccccc2c1=O`, the GI50 in the assay on SF-539 CNS is 40.1 µM; in the assay on MALME-3M melanoma, 34.3 µM; in the assay on A498 renal, 16.4 µM; with M14 melanoma, 90.7 µM; in the assay on SNB-75 CNS, 17.1 µM; in the assay on MDA-MB-435 it was greater than 100 µM. The GI50 in the assay with HOP-62 NSCLC is 14.6 µM; in the assay with UACC-62 melanoma it was 38.4 µM; in the assay with MOLT-4 leukemia, greater than 100 µM; in the assay with SNB-19 CNS it was 32.8 µM. Besides, the TGI with SF-539 CNS was greater than 100 µM; in the assay on MALME-3M melanoma it was greater than 100 µM; in the assay with A498 renal, 59.2 µM; with M14 melanoma, greater than 100 µM; in the assay with SNB-75 CNS, 53.8 µM; with MDA-MB-435 it was greater than 100 µM. The TGI in the assay with HOP-62 NSCLC is 33.5 µM; with UACC-62 melanoma, greater than 100 µM; with MOLT-4 leukemia it was greater than 100 µM; in the assay on SNB-19 CNS, greater than 100 µM.

For the compound `C=CCOc1ccc(N)c([N+](=O)[O-])c1`, the concentration for total growth inhibition (TGI) with SF-539 CNS, in the assay on MALME-3M melanoma, in the assay with A498 renal, in the assay with M14 melanoma, in the assay on SNB-75 CNS and in the assay on MDA-MB-435 was greater than 100 µM throughout. The TGI in the assay with HOP-62 NSCLC, in the assay with UACC-62 melanoma, with MOLT-4 leukemia and with SNB-19 CNS was greater than 100 µM each time.
